The record followed here is patent publication US20250127906A1, “SMALL-MOLECULE DEGRADERS OF CDK8 AND CDK19” (University of South Carolina, priority 2021, published 2025).

Structures are written as SMILES.

Usually DC50 stands for the concentration giving 50% degradation. Higher therefore signals a less potent degrader.

One assay concerns MV4-11 cells. The experiment in a line: Long-term growth of MV4-11 cells under continuous treatment. To be noted: MV4-11, 300 nM continuous. Format: cell-based, human. How it is done:
The anti-proliferative effects of a PROTAC and a kinase inhibitor were compared in leukemia cell lines. In the long-term treatment experiment shown in FIG. 11A, Jurkat cells (0.1 million cells) were continuously treated with vehicle control (0.1% DMSO), 300 nM BI-1347 or 300 nM IA7886 for 53 days (each condition in biological triplicates). Every 7-8 days, live cells were counted using BioRAD TC20 Automated Cell Counter with trypan blue staining: 0.1 million live cells were passaged to a new T25 flask to propagate under the same treatment conditions. The survival fraction was calculated by dividing the accumulated number of drug-treated cells with the accumulated number of vehicle-treated cells. […] This sustained inhibition property of PROTAC was also observed in MV4-11, a leukemia cell line highly sensitive to CDK8/19 kinase inhibitors.

The next assay deals with CCL12. The experiment in a line: CCL12 mRNA expression in CT26 tumors in Balb/c mice (QPCR). Format: in vivo. The conditions noted are these: oral gavage 20 mg/kg, 2, 8 or 24 hrs after dosing. How it is done: CT26 cells were injected subcutaneously into syngeneic Balb/c female mice and allowed to grow to 150˜200 mm^3. Tumor-bearing mice then received PROTACs IA7882 or IA7886 by oral gavage at 20 mg/kg in 30% propylene glycol/70% PEG-400 vehicle. Tumors were collected 2, 8 or 24 hrs after dosing and used to measure protein levels of CDK8, pS727 STAT1 and total STAT1 (by western blotting) and mRNA expression of CCL12, a gene that is inhibited by different CDK8/19 inhibitors in CT26 tumors in vivo (by QPCR).

The test system of another assay is Jurkat cells. The experiment in a line: Wash-off growth study in Jurkat cells. Format: cell-based, human. To be noted: pre-treated 200 nM for 8 days, then drug-free vs drug-containing media for 8 days. How it is done: We also compared the stability of short-term growth inhibition induced by a PROTAC and a kinase inhibitor in a wash-off study in Jurkat cells. In the experiment shown in FIG. 11C, Jurkat cells were pre-treated with 200 nM BI-1347 or IA7886 for 8 days before removal of drug-containing media and further cultured in either drug-containing (200 nM) or drug-free media for 8 days before counting cell numbers. Removal of BI-1347 led to 7.1 fold increase of the cell number while removal of IA7886 increased the cell number only 1.8 fold (FIG. 11C).

For assay [1], the target named is CDK19 (Homo sapiens, UniProt Q9BWU1). Description: CDK19 degradation in HEK-293 cells (Western blot). Format: cell-based. More on the design: PROTACs on CDK8 and CDK19 degradation in HEK-293cells; endogenous in cells; host or cells: HEK-293. The conditions noted are these: concentration degrading CDK19 to half of level in untreated cells. The text has this: Furthermore, the degradation of both CDK8 and CDK19 by the PROTACs is also seen to decrease the levels of their binding partner cyclin C (CCNC) (FIG. 2B, D, E), which is known to be protected from proteolytic degradation by its interaction with CDK8 (Barette et al., 2001).
FIGS. 2F and 2G show the effects of different concentrations of potent Senexin C- and BI-1347-based PROTACs on CDK8 and CDK19 degradation in HEK-293cells. Based on these assays, we calculated DC50 values that correspond to PROTAC concentrations inducing degradation of CDK8 and CDK19 to the half of protein level in untreated cells. The corresponding CDK8 DC50 values were 46 nM for IA7843, 6.6 nM for IA7882 and 2.8 nM for IA7886, and CDK19 DC50 values were 1 μM for IA7843, 25 nM for IA7882 and 10 nM for IA7886.

Assay [2] relates to CDK8/CDK19/CCNC protein degradation and STAT1 S727 phosphorylation. The experiment in a line: Wash-off study in HEK-293 cells, Western blot. Format: cell-based, human. To be noted: HEK-293, within 24 hours after removal of drug-containing media.
The next assay deals with T1, CDK8 (Canis lupus familiaris, UniProt A0A8I3PYQ8).
T1 construct: endogenous in cells; host or cells: Abrams (canine osteosarcoma)
T1 sequence (A0A8I3PYQ8 1-464): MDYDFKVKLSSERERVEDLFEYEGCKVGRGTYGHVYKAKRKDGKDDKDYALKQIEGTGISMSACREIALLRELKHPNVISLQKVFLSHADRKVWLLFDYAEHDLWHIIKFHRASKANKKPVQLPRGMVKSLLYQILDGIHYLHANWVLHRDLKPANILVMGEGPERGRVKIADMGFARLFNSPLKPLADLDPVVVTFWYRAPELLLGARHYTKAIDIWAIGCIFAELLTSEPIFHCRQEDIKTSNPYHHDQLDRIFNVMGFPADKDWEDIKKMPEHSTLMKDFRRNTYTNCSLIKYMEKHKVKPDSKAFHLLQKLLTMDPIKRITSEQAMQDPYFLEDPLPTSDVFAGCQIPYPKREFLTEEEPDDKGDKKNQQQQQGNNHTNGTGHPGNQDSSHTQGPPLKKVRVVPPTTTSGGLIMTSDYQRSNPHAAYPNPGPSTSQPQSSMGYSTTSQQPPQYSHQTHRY
The experiment in a line: CDK8 degradation in canine Abrams osteosarcoma cells. The class given is cell-based. The text has this:
(§1) Both the extent and the kinetics of CDK8 degradation were similar between two cell lines, with the degradation reaching maximum at about 8 hrs of PROTAC treatment.

Assay [3] has as its target T2, CDK19 (Canis lupus familiaris, UniProt A0A8I3NZB9).
T2 construct: endogenous in cells; host or cells: Abrams (canine osteosarcoma)
T2 sequence (A0A8I3NZB9 1-502): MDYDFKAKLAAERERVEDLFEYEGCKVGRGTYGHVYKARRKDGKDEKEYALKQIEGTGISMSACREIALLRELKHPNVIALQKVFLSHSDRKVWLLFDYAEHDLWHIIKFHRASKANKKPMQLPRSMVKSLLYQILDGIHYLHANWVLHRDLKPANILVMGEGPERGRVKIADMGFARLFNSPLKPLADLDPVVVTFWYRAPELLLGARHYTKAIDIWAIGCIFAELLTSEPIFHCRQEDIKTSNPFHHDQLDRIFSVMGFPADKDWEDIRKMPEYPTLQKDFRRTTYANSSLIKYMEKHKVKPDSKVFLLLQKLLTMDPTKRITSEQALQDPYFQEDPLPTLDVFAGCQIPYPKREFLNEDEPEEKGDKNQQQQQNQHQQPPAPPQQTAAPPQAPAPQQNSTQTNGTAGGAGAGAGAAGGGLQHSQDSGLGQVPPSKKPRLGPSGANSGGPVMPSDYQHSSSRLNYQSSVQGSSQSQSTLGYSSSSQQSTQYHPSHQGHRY
Description: CDK19 degradation in canine Abrams osteosarcoma cells. The class given is cell-based.
Text: as §1

Sequence of CDK19 (Homo sapiens, UniProt Q9BWU1) (Q9BWU1 whole entry): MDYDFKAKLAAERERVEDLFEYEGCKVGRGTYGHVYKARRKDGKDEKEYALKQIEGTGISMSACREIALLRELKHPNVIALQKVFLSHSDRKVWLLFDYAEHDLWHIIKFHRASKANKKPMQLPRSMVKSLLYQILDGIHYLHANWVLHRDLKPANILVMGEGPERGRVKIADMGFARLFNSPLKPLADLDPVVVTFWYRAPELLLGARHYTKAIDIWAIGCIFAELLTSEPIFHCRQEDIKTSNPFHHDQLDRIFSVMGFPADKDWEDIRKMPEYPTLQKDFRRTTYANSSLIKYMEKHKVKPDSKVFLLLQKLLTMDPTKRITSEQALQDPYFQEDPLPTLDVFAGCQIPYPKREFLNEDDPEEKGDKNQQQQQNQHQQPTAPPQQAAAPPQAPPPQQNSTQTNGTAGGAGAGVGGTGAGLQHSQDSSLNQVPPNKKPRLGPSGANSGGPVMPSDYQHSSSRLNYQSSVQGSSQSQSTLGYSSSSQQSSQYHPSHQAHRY
Sequence of CDK19 (Homo sapiens, UniProt Q9BWU1) (P24863 whole entry partner): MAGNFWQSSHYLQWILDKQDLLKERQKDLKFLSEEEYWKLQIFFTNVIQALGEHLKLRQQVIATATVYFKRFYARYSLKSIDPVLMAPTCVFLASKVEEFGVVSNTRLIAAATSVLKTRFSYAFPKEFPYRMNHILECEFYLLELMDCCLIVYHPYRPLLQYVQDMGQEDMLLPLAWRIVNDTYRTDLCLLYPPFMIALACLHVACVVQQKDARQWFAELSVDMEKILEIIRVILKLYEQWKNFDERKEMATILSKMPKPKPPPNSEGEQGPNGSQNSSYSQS

On to `O=C(CCCNc1cccc2c1C(=O)N(C1CCC(=O)NC1=O)C2=O)NCCCCCCCCCCC(=O)N1CCN(C(=O)Cn2cc(-c3ccc(-c4cncc5ccccc45)cc3)cn2)CC1` (stereo not shown) [IA7886, 4-[[2-(2,6-dioxo-3-piperidyl)-1,3-dioxo-isoindolin-4-yl]amino]-N-[11-[4-[2-[4-[4-(4-isoquinolyl)phenyl]pyrazol-1-yl]acetyl]piperazin-1-yl]-11-oxo-undecyl]butanamide], for which the “growth inhibition over 60 days” value in the assay on MV4-11 cells is “much more stable and continued for the entire 60 days”. Moreover, the “levels of CCL12 mRNA in tumors” value in the assay with CCL12 was “decreased in tumors treated with IA7882 or IA7886 2 hrs or 8 hrs (but not 24 hrs) after dosing”. Besides, in the assay on Jurkat cells, the “increase of the cell number upon removal of drug” value is on record as 1.8 fold. The DC50 on CDK19 [1] is 10 nM. The “effects on CDK8/CDK19/CCNC protein degradation and STAT1 S727 phosphorylation after removal of drug” value in assay [2] was “remained nearly unchanged”. For the same molecule, on CDK8, the “CDK8 degradation (in words)” value is “induce CDK8 degradation in both cell lines”. Moreover, the “CDK19 degradation (in words)” value on CDK19 [3] is given as “induced CDK19 degradation in Abrams cells”.
